From ChEMBL document CHEMBL3137667, “[Drug-induced liver injury; fourteenth updated edition of the bibliographic database of liver injuries and related drugs]” (Gastroenterol Clin Biol, 2004)

Tests used:
[1] = human
[2] = human; remark: listed apart in the source
[3] = human, serum
[4] = human; remark: listed apart in the source
[5] = human; remark: listed apart in the source
[6] = human; remark: listed apart in the source
[7] = human; remark: listed apart in the source
[8] = Highest frequency of acute liver toxicity observed during clinical trials, expressed as a percentage. [column '% AIGUE' in source]; details: human
[9] = Proposed mechanism(s) of liver damage. [column 'MEC' in source]; details: human
[10] = Comments (NB not yet translated). [column 'COMMENTAIRES' in source]; details: human
[11] = human; remark: listed apart in the source
[12] = Times to onset, minimal and maximal, observed in the indexed observations. [column 'DELAI' in source]; details: human
[13] = human, serum, 4383 h
[14] = Highest frequency of moderate liver toxicity observed during clinical trials, expressed as a percentage. [column '% BIOL' in source]; details: human
[15] = human; remark: listed apart in the source
[16] = human; remark: listed apart in the source
[17] = Presence of at least one case with successful reintroduction. [column 'REINT' in source]; details: human
[18] = human, serum; remark: listed apart in the source
[19] = human; remark: listed apart in the source
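Wherever Hepatotoxicity (association with vascular disease) is given: count of indexed literature references reporting vascular liver injury in humans, e.g. peliosis hepatitis, hepatic veno-occlusive disease or Budd-Chiari syndrome.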
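Wherever Hepatotoxicity (benign tumour) is given: value is a count of indexed literature references citing a benign tumour confirmed by histopathology.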
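Wherever Hepatotoxicity (choleostasis) is given: human cholestatic liver injury, shown by histopathology or by peak ALT or AST elevation over alkaline phosphatase ratio below 2, value counts indexed literature reports.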
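Wherever Hepatotoxicity (chronic liver disease) is given: chronic liver injury confirmed by histopathology or persistently raised serum aminotransferase activity beyond 6 months, value given as the count of indexed literature references.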
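Wherever Hepatotoxicity (cirrhosis) is given: value is a count of indexed literature references reporting cirrhosis confirmed by histopathology.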
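Wherever Hepatotoxicity (cytolytic) is given: human cytolytic liver injury, shown by histopathology or by a ratio above 5 of peak ALT or AST elevation to alkaline phosphatase elevation, value counts indexed references.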
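Wherever Hepatotoxicity (granulomatous hepatitis) is given: value is a count of indexed literature references reporting granulomatous liver disease confirmed by histopathology.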
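Wherever Hepatotoxicity (malignant tumour) is given: malignant tumour confirmed by histopathology, value gives the count of indexed literature references reporting it.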
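Wherever Hepatotoxicity (severe hepatitis) is given: human clinical data: severe hepatitis, meaning potentially life-threatening liver failure or clinically observed cases, the value counts how many indexed literature references report it.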
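Wherever Hepatotoxicity (steatosis) is given: steatosis confirmed by histopathology, value is the count of indexed references.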

## NC(=O)c1cnccn1 [PYRAZINAMIDE]
[1]
  Hepatotoxicity (choleostasis): 8
[2]
  Hepatotoxicity (cytolytic): 28
[3]
  Hepatotoxicity (moderate): 21
[4]
  Hepatotoxicity (benign tumour): 0
[5]
  Hepatotoxicity (steatosis): 0
[6]
  Hepatotoxicity (malignant tumour): 0
[7]
  Hepatotoxicity (severe hepatitis): 19
[8]
  Hepatotoxicity (acute): 31.8%
[9]
  Hepatotoxicity (mechanism): Allergic, Dose-dependant
[10]
  Hepatotoxicity (comment): I/OFLOXACINE AC_ANTI-N
[11]
  Hepatotoxicity (animal toxicity known): yes
[12]
  Hepatotoxicity (time to onset): 2 hours - 1.2 years
[13]
  Hepatotoxicity (chronic liver disease): 1
[14]
  Hepatotoxicity (moderate): 36.4%
[15]
  Hepatotoxicity (cirrhosis): 0
[16]
  Hepatotoxicity (granulomatous hepatitis): 1
[17]
  Hepatotoxicity (successful reintroduction): yes
[18]
  Hepatotoxicity (acute): 51
[19]
  Hepatotoxicity (association with vascular disease): 0

## CNC(=O)OCc1cccc(COC(=O)NC)n1 [PYRICARBATE]
[1]
  Hepatotoxicity (choleostasis): 4
[2]
  Hepatotoxicity (cytolytic): 8
[3]
  Hepatotoxicity (moderate): 4
[4]
  Hepatotoxicity (benign tumour): 0
[5]
  Hepatotoxicity (steatosis): 0
[6]
  Hepatotoxicity (malignant tumour): 0
[7]
  Hepatotoxicity (severe hepatitis): 3
[8]
  Hepatotoxicity (acute): 0.7%
[9]
  Hepatotoxicity (mechanism): Allergic
[10]
  Hepatotoxicity (comment): AC_ANTI-MFR/-ML
[11]
  Hepatotoxicity (animal toxicity known): A
[12]
  Hepatotoxicity (time to onset): 2 weeks - 6 months
[13]
  Hepatotoxicity (chronic liver disease): 0
[14]
  Hepatotoxicity (moderate): 10%
[15]
  Hepatotoxicity (cirrhosis): 0
[16]
  Hepatotoxicity (granulomatous hepatitis): 0
[17]
  Hepatotoxicity (successful reintroduction): yes
[18]
  Hepatotoxicity (acute): 9
[19]
  Hepatotoxicity (association with vascular disease): 0

## CO[C@H]1/C=C/O[C@@]2(C)Oc3c(C)c(O)c4c(O)c(c(/C=N/N5CCN(C)CC5)c(O)c4c3C2=O)NC(=O)/C(C)=C\C=C\[C@H](C)[C@H](O)[C@@H](C)[C@@H](O)[C@@H](C)[C@H](OC(C)=O)[C@@H]1C [RIFAMPIN]
[1]
  Hepatotoxicity (choleostasis): 19
[2]
  Hepatotoxicity (cytolytic): 14
[3]
  Hepatotoxicity (moderate): 22
[4]
  Hepatotoxicity (benign tumour): 0
[5]
  Hepatotoxicity (steatosis): 0
[6]
  Hepatotoxicity (malignant tumour): 0
[7]
  Hepatotoxicity (severe hepatitis): 6
[8]
  Hepatotoxicity (acute): 7.3%
[9]
  Hepatotoxicity (mechanism): Allergic, Dose-dependant
[10]
  Hepatotoxicity (comment): AC_ANTI-N I/ISONIAZIDE/TROLEANDOMYCINE
[11]
  Hepatotoxicity (animal toxicity known): yes
[12]
  Hepatotoxicity (time to onset): 2 days - 14 months
[13]
  Hepatotoxicity (chronic liver disease): 0
[14]
  Hepatotoxicity (moderate): 23%
[15]
  Hepatotoxicity (cirrhosis): 0
[16]
  Hepatotoxicity (granulomatous hepatitis): 0
[17]
  Hepatotoxicity (successful reintroduction): yes
[18]
  Hepatotoxicity (acute): 38
[19]
  Hepatotoxicity (association with vascular disease): 0

## CO[C@H]1C[C@H](O[C@H]2[C@H](C)[C@@H](O[C@@H]3O[C@H](C)C[C@H](N(C)C)[C@H]3OC(C)=O)[C@@H](C)C[C@@]3(CO3)C(=O)[C@H](C)[C@@H](OC(C)=O)[C@@H](C)[C@@H](C)OC(=O)[C@@H]2C)O[C@@H](C)[C@@H]1OC(C)=O [TROLEANDOMYCIN]
[1]
  Hepatotoxicity (choleostasis): 26
[2]
  Hepatotoxicity (cytolytic): 2
[3]
  Hepatotoxicity (moderate): 15
[4]
  Hepatotoxicity (benign tumour): 0
[5]
  Hepatotoxicity (steatosis): 0
[6]
  Hepatotoxicity (malignant tumour): 0
[7]
  Hepatotoxicity (severe hepatitis): 0
[8]
  Hepatotoxicity (acute): 4%
[9]
  Hepatotoxicity (mechanism): Allergic, Dose-dependant
[10]
  Hepatotoxicity (comment): CHOLANGITE I/PILULE/RIFAMPICINE RC/ERYTHROMYCINE
[11]
  Hepatotoxicity (animal toxicity known): yes
[12]
  Hepatotoxicity (time to onset): 3 days - 2 weeks
[13]
  Hepatotoxicity (chronic liver disease): 0
[14]
  Hepatotoxicity (moderate): 83.3%
[15]
  Hepatotoxicity (cirrhosis): 0
[16]
  Hepatotoxicity (granulomatous hepatitis): 0
[17]
  Hepatotoxicity (successful reintroduction): yes
[18]
  Hepatotoxicity (acute): 27
[19]
  Hepatotoxicity (association with vascular disease): 0
